In ChEMBL document CHEMBL4825731, “[11C]CHDI-626, a PET Tracer Candidate for Imaging Mutant Huntingtin Aggregates with Reduced Binding to AD Pathological Proteins” (J Med Chem, 2021):
Blank lines part the entries; values can stand above or below the compound they belong to.

Columns and labels:
[1] = Displacement of [3]10-methoxy-N-(pyridin-3-yl-7-thia-2,5-diazatricyclo(6.4.0.0 2.6)-dodeca-1(12),3,5,8,10-pentaene-4-carboxamide from polyglutamine Q46 aggregate (unknown origin) by radio ligand binding assay; set-up: species or system Homo sapiens
[2] = Fraction unbound in mouse brain homogenate at 5 uM incubated for 6 hrs shaking at 250 rpm by LC-MS/MS analysis; format: ADME, tissue-based
[3] = target: Amyloid-beta precursor protein (Homo sapiens) (UniProt P05067); experiment: Displacement of [3]10-methoxy-N-(pyridin-3-yl-7-thia-2,5-diazatricyclo(6.4.0.0 2.6)-dodeca-1(12),3,5,8,10-pentaene-4-carboxamide from human Amyloid beta plaques using AD postmortem patient brain homogenates at 1 uM incubated for 2 hr by radio ligand binding assay relative to control; format: tissue-based
[4] = Cmax in C57BL/6 mouse brain at 0.05 mg/kg, iv; format: ADME, organism-based; set-up: route intravenous, dose 0.05 mg/kg
[5] = AUC (5 to 60 min) in C57BL/6 mouse brain at 0.05 mg/kg, iv; format: ADME, organism-based; set-up: dose 0.05 mg/kg
MDR1 = experiment: Efflux ratio of apparent permeability in MDCK cells expressing human MDR1; format: ADME, cell-based, Canis lupus familiaris; settings: dog
BCRP = experiment: Efflux ratio of apparent permeability in MDCK cells expressing human BCRP; format: ADME, cell-based, Canis lupus familiaris; settings: dog
[6] = Tmax in Rhesus macaque brain treated bolus injected into sural vein for 5 secs measured 30 to 120 mins by PET analysis; format: ADME, organism-based, Macaca mulatta; settings: rhesus monkey, in vivo, iv; time 30-120 min
[7] = Fraction unbound in brain concentration ratio in C57BL/6 mouse at 0.05 mg/kg, iv; format: ADME, organism-based
[8] = Cmax in Rhesus macaque brain treated bolus injected into sural vein for 5 secs measured 30 to 120 mins by PET analysis; format: ADME, organism-based, Macaca mulatta; set-up: time upper 120 min, time lower 30 min; settings: rhesus monkey, in vivo, iv
[9] = Cmax in Cynomolgus macaque brain treated bolus injected into sural vein for 5 secs measured 30 to 120 mins by PET analysis; format: ADME, organism-based, Macaca fascicularis; set-up: time upper 120 min, time lower 30 min; settings: cynomolgus monkey, in vivo, iv
[10] = Half life in mouse liver microsomes; format: ADME, Microsome
[11] = Tmax in Cynomolgus macaque brain treated bolus injected into sural vein for 5 secs by PET analysis; format: ADME, organism-based, Macaca fascicularis; settings: cynomolgus monkey, in vivo, iv, 5 s; time 5 sec
[12] = Unbound brain-to-plasma concentration ratio in C57BL/6 mouse at 0.05 mg/kg, iv; format: ADME, organism-based; settings: brain and plasma, read-out: K(p,uu,brain)
[13] = Stability in mouse plasma assessed as half life; format: ADME, cell-free
[14] = Stability in human plasma assessed as half life; format: ADME, cell-free
[15] = AUC in Cynomolgus macaque brain to plasma ratio treated bolus injected into sural vein for 5 secs measured 30 to 120 mins by PET analysis; format: ADME, organism-based, Macaca fascicularis; settings: cynomolgus monkey, iv, time 30-120 min
[16] = Apparent permeability in MDCK cells; format: ADME, cell-based, Canis lupus familiaris; settings: dog
[17] = AUC in Rhesus macaque brain to plasma ratio treated bolus injected into sural vein for 5 secs measured 30 to 120 mins by PET analysis; format: ADME, organism-based, Macaca mulatta; settings: rhesus monkey, iv, time 30-120 min
[18] = Fraction unbound in plasma concentration ratio in C57BL/6 mouse at 0.05 mg/kg, iv; format: ADME, organism-based
[19] = Half life in cynomolgus monkey liver microsomes; format: ADME, Macaca fascicularis, Microsome
[20] = Half life in human liver microsomes; format: ADME, Microsome
[21] = Drug metabolism in C57BL/6 mouse brain assessed as oxidative metabolite M2a at 0.05 mg/kg, iv; format: ADME, organism-based; settings: in vivo
[22] = Drug metabolism in C57BL/6 mouse plasma assessed as oxidative metabolite M2a at 0.05 mg/kg, iv; format: ADME, organism-based; settings: in vivo

Chain of Amyloid-beta precursor protein (Homo sapiens) (P05067 whole entry): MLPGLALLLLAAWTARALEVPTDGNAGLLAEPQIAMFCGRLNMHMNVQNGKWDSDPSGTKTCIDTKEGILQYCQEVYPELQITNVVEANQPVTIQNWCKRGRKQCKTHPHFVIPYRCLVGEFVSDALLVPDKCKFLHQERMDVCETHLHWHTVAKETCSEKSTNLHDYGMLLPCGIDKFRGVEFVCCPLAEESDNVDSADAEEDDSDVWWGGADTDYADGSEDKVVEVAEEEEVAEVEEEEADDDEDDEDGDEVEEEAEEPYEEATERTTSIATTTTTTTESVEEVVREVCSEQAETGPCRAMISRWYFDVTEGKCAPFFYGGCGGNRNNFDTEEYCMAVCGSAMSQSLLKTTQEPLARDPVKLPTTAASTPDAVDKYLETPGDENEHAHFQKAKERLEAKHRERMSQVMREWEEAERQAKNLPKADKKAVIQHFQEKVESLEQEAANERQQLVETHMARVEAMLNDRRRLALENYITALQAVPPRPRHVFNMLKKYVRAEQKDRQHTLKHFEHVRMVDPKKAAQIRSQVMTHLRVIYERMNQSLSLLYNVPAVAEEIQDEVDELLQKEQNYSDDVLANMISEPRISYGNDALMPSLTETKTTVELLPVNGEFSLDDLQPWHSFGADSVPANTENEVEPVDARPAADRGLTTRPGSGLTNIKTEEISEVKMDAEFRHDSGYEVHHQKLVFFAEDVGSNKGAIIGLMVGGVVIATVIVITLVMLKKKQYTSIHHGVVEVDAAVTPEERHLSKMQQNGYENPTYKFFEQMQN

SMILES: COc1ccc2c(c1)nc1nc(C(=O)Nc3ccc(=O)n(C)n3)ccn12
- IC50 ([1]; read-out: IC50): 12 nM
- fraction unbound at 6 h, 5 µM [2]: 0.25

SMILES: COc1ccc2c(c1)nc1nc(C(=O)Nc3ccccn3)ccn12
- IC50 ([1]; read-out: IC50): 6.8 nM
- fraction unbound at 6 h, 5 µM [2]: 0.18
- Activity [3]: 41%

SMILES: Cn1cc(NC(=O)c2ccn3c(n2)nc2ccccc23)ccc1=O
- IC50 ([1]; read-out: IC50): 26 nM
- fraction unbound at 6 h, 5 µM [2]: 0.46

SMILES: O=C(Nc1ccc(=O)[nH]c1)c1ccn2c(n1)nc1ccccc12
- IC50 ([1]; read-out: IC50): 45 nM
- fraction unbound at 6 h, 5 µM [2]: 0.64

SMILES: COc1ccc(COc2ccn3c(n2)nc2ccccc23)cn1
- efflux ratio (MDR1): 0.5
- efflux ratio (BCRP): 0.5
- IC50 ([1]; read-out: IC50): 54 nM
- fraction unbound at 6 h, 5 µM [2]: 0.08

SMILES: O=C(Nc1cccnc1)c1ccn2c(n1)nc1ccccc12
- IC50 ([1]; read-out: IC50): 39 nM
- fraction unbound at 6 h, 5 µM [2]: 0.21
- Activity [3]: -12%

SMILES: CNc1ccc(-c2cn3c(n2)sc2cc(OCCF)ccc23)cc1
- IC50 ([1]; read-out: IC50): 5.7 nM
- Activity [3]: 130%

SMILES: FCCC1CCN(c2ccn3c(n2)nc2ccccc23)CC1
- IC50 ([1]; read-out: IC50): > 333 nM
- fraction unbound at 6 h, 5 µM [2]: 0.12
- Activity [3]: 34%

SMILES: COc1ccc(NC(=O)c2ccnc(Nc3ccncc3)n2)cn1
- IC50 ([1]; read-out: IC50): 5.3 nM
- fraction unbound at 6 h, 5 µM [2]: 0.02

SMILES: [11CH3]Oc1ccc(NC(=O)c2ccn3c(n2)nc2ccccc23)cn1
- Tmax [6]: 0.8 min
- fraction unbound [7]: 0.11
- Cmax [8]: 3.2 %ID
- Cmax [9]: 3.5 %ID
- half-life [10]: 8 min
- Tmax [11]: 0.8 min
- efflux ratio (MDR1): 0.5
- Kp uu [12]: 0.9
- half-life [13]: 100 min
- efflux ratio (BCRP): 0.9
- IC50 ([1]; read-out: IC50): 3.6 nM
- half-life [14]: 127 min
- Ratio AUC [15]: 0.3
- Cmax [4]: 21 nM
- Papp [16]: 9.4 ×10⁻⁶ cm/s
- Ratio AUC [17]: 0.9
- fraction unbound at 6 h, 5 µM [2]: 0.11
- fraction unbound [18]: 0.09
- half-life [19]: 1 min
- AUC(0-t) [5]: 3 nM·h
- half-life [20]: 8 min

SMILES: COc1cc(NC(=O)c2ccn3c(n2)nc2ccccc23)cnc1OC
- IC50 ([1]; read-out: IC50): 5.8 nM
- fraction unbound at 6 h, 5 µM [2]: 0.1
- Activity [3]: 21%

SMILES: COc1ccc2c(c1)nc1nc(C(=O)N3CC(N4CCOCC4)C3)ccn12
- IC50 ([1]; read-out: IC50): 401 nM

SMILES: COc1ncc(NC(=O)c2ccn3c(n2)nc2ccccc23)cc1C
- IC50 ([1]; read-out: IC50): 2.8 nM
- fraction unbound at 6 h, 5 µM [2]: 0.03
- Activity [3]: -29%

SMILES: COc1ccc2c(c1)nc1nc(C(=O)N3Cc4cccnc4C3)ccn12
- IC50 ([1]; read-out: IC50): 4.1 nM
- fraction unbound at 6 h, 5 µM [2]: 0.32
- Activity [3]: 0%

SMILES: COc1ccc2c(c1)nc1nc(C(=O)Nc3cnc(C)c(C)c3)ccn12
- IC50 [1]: Nd(Insoluble)
- Fu ([2]; 6 h, 5 µM): Nd(Insoluble)

SMILES: COc1ccc2c(c1)nc1nc(C(=O)NC3CC3)ccn12
- IC50 ([1]; read-out: IC50): 351 nM
- fraction unbound at 6 h, 5 µM [2]: 0.24

SMILES: COc1ccc(C(=O)Nc2ccn3c(n2)nc2ccccc23)cn1
- efflux ratio (MDR1): 0.5
- efflux ratio (BCRP): 2.1
- IC50 ([1]; read-out: IC50): 1.6 nM
- fraction unbound at 6 h, 5 µM [2]: 0.16

SMILES: COc1ccc2c(c1)nc1nc(C(=O)Nc3ccncn3)ccn12
- IC50 ([1]; read-out: IC50): 9.2 nM
- fraction unbound at 6 h, 5 µM [2]: 0.23
- Activity [3]: 30%

SMILES: COc1cncc(NC(=O)c2ccn3c(n2)nc2ccccc23)c1
- fraction unbound [7]: 0.21
- half-life [10]: 4 min
- efflux ratio (MDR1): 0.8
- Kp uu [12]: 1
- half-life [13]: 215 min
- efflux ratio (BCRP): 2.7
- IC50 ([1]; read-out: IC50): 3.5 nM
- half-life [14]: > 480 min
- Cmax [4]: 17 nM
- Papp [16]: 12.5 ×10⁻⁶ cm/s
- fraction unbound at 6 h, 5 µM [2]: 0.21
- fraction unbound [18]: 0.07
- half-life [19]: 4 min
- AUC(0-t) [5]: 2 nM·h
- Drug metabolism [21]: Metabolite_Detected
- half-life [20]: 12 min
- Drug metabolism [22]: Metabolite_Detected
- Activity [3]: 25%

SMILES: O=C(Nc1ccccn1)c1ccn2c(n1)nc1ccccc12
- IC50 ([1]; read-out: IC50): 8.4 nM
- fraction unbound at 6 h, 5 µM [2]: 0.29
- Activity [3]: 24%

SMILES: COc1ccc(NC(=O)c2ccc3c(c2)nc2ncccn23)cn1
- efflux ratio (MDR1): 0.6
- efflux ratio (BCRP): 25
- IC50 ([1]; read-out: IC50): 69 nM
- fraction unbound at 6 h, 5 µM [2]: 0.38

SMILES: COc1ccc2c(c1)nc1nc(C(=O)Nc3ccc(OC)nc3)ccn12
- IC50 ([1]; read-out: IC50): 2.3 nM
- fraction unbound at 6 h, 5 µM [2]: 0.1
- Activity [3]: 13%

SMILES: COc1cncc(NC(=O)c2ccn3c(n2)nc2cc(OC)ccc23)c1
- IC50 ([1]; read-out: IC50): 2.1 nM
- fraction unbound at 6 h, 5 µM [2]: 0.15
- Activity [3]: 5%

SMILES: Cc1cc(NC(=O)c2ccn3c(n2)nc2ccccc23)cnc1C
- IC50 ([1]; read-out: IC50): 1.4 nM
- fraction unbound at 6 h, 5 µM [2]: 0.02
- Activity [3]: 21%

SMILES: CN(C(=O)c1ccn2c(n1)nc1ccccc12)c1ccc(=O)[nH]c1
- IC50 ([1]; read-out: IC50): > 1000 nM
- fraction unbound at 6 h, 5 µM [2]: 0.51

Further lines, results first:

- Cmax [4]: 124 nM
- AUC(0-t) [5]: 65 nM·h
SMILES: COc1ccc(COc2ccc3oc(-c4ccc(=O)n(C)n4)nc3c2)nc1

- IC50 ([1]; read-out: IC50): 17 nM
- fraction unbound at 6 h, 5 µM [2]: 0.54
SMILES: COc1ccc2c(c1)nc1nc(C(=O)Nc3cccnn3)ccn12

- IC50 ([1]; read-out: IC50): 10 nM
- fraction unbound at 6 h, 5 µM [2]: 0.15
- Activity [3]: 17%
SMILES: COc1ccc2c(c1)nc1nc(C(=O)Nc3cccnc3)ccn12

- IC50 ([1]; read-out: IC50): 3.3 nM
- fraction unbound at 6 h, 5 µM [2]: 0.06
SMILES: COc1ccc(NC(=O)c2ccc3c(n2)oc2ccncc23)cn1

- IC50 ([1]; read-out: IC50): 4.3 nM
- fraction unbound at 6 h, 5 µM [2]: 0.03
- Activity [3]: 100%
SMILES: COc1ccc2c(c1)sc1nc(C(=O)Nc3cccnc3)cn12

- IC50 ([1]; read-out: IC50): 72 nM
- fraction unbound at 6 h, 5 µM [2]: 0.22
SMILES: C#CCCCNC(=O)c1ccn2c(n1)nc1cc(OC)ccc12

- efflux ratio (MDR1): 2
- efflux ratio (BCRP): > 7.3
- IC50 ([1]; read-out: IC50): 2.8 nM
- fraction unbound at 6 h, 5 µM [2]: 0.03
SMILES: COc1ccc(NC(=O)c2ccc3c4cnccc4n(C(=O)OC(C)(C)C)c3n2)cn1

- efflux ratio (MDR1): 0.5
- efflux ratio (BCRP): 1.3
- IC50 ([1]; read-out: IC50): 48 nM
SMILES: COc1ccc(COc2ccn3c(n2)nc2ccccc23)nc1

- IC50 ([1]; read-out: IC50): 16 nM
- fraction unbound at 6 h, 5 µM [2]: 0.37
- Activity [3]: 12%
SMILES: Cn1nc(NC(=O)c2ccn3c(n2)nc2ccccc23)ccc1=O

- IC50 ([1]; read-out: IC50): 48 nM
- fraction unbound at 6 h, 5 µM [2]: 0.17
- Activity [3]: 8%
SMILES: COc1ccc2c(c1)nc1nc(C(=O)NC3CCCc4cccnc43)ccn12 (configuration not stated)

- IC50 ([1]; read-out: IC50): 1.3 nM
- fraction unbound at 6 h, 5 µM [2]: 0.04
SMILES: COc1ccc(NC(=O)c2ccc3c4cnccc4n(C)c3n2)cn1

- IC50 ([1]; read-out: IC50): 302 nM
- fraction unbound at 6 h, 5 µM [2]: 0.7
SMILES: Cn1cc(NC(=O)c2ccn3c(n2)nc2ccccc23)cnc1=O
